Measurements from patent US9221756B2, “Pyrrole derivatives” (priority 2011, dated 2015).
Read-outs that look alike come from different tables or passages of the source.

Tests used:
pneumolysin = pneumolysin (Streptococcus pneumoniae serotype 2, UniProt Q04IN8); assay: Inhibition of the haemolytic activity of pneumolysin (sheep erythrocytes); type: cell-based; conditions: class symbols of Table 1
[1] = Conversion of prodrug derivatives to active inhibitors in mouse plasma; type: in vitro ADME; conditions: 37° C., 10 μM start, prodrug remaining; for [ ] (μM) t0 min. Prodrug: 0 min; for [ ] (μM) t15 min. Prodrug: 15 min; for [ ] (μM) t30 min. Prodrug: 30 min; for [ ] (μM) t60 min. Prodrug: 60 min; for [ ] (μM) t120 min. Prodrug: 120 min
Description: (§1) The samples were then analysed by LC-MS/MS to obtain the amount of active compound appearing and prodrug derivative remaining over time. The mouse plasma assay system is considered to be a good model for human behaviour. Nevertheless data obtained in a human plasma assay system was obtained in some cases.
(§2) Prodrug derivatives were assessed in the mouse and human plasma stability assay at a concentration of 10 μM. Test compounds were diluted in DMSO to a final stock concentration of 10 mM. For the purpose of the assay, the stocks prepared were further diluted in DMSO to a concentration of 400 μM and […] were added to 195 μl of mouse or human plasma (pH 7.4) and then incubated at 37° C. The final concentration of DMSO in the plate was 2.5% (v/v). Reactions were terminated at 0, 15, 30, 60 and 120 min after incubation by adding 400 μl of acetonitrile containing 0.55 μM metoprolol and 1% (v/v) formic acid. The plate was then centrifuged at 3000 rpm, for 45 min, at 4° C. 80 μl of supernatant were transferred into a conical bottom 96 well glass coated plate. 40 μl of water were added prior to analysis for prodrug derivative and active species by LC-MS/MS. This assay was performed by a contract research organisation, Cyprotex Discovery Limited, UK, at the request of the inventors at Leicester.
(§3) (1) The active compound was quantified using a 6 point calibration curve prepared in deactivated mouse and human plasma. (2) The percentage of parent compound remaining at each time point relative to 0 min sample was calculated from LC-MS/MS peak area ratios (compound peak area/internal standard peak area). This percentage was then used to determine the concentration of the parent compound at each time point in reference to the starting concentration (10 μM) at time 0 min.

[2] = type: in vitro ADME; conditions: human plasma, 37° C., 10 μM start, prodrug remaining; for [ ] (μM) t0 min. Prodrug (Human): 0 min; for [ ] (μM) t15 min. Prodrug (Human): 15 min; for [ ] (μM) t30 min. Prodrug (Human): 30 min; for [ ] (μM) t60 min. Prodrug (Human): 60 min; for [ ] (μM) t120 min. Prodrug (Human): 120 min
Description: as §1, §2, §3

[3] = inhibition of pneumolysin-induced haemolysis of sheep erythrocytes, read-out: IC50
[4] = IC50, inhibition of pneumolysin-induced haemolysis of sheep erythrocytes
[5] = inhibition of pneumolysin-induced haemolysis of sheep erythrocytes

Chain of pneumolysin (Q04IN8 whole entry): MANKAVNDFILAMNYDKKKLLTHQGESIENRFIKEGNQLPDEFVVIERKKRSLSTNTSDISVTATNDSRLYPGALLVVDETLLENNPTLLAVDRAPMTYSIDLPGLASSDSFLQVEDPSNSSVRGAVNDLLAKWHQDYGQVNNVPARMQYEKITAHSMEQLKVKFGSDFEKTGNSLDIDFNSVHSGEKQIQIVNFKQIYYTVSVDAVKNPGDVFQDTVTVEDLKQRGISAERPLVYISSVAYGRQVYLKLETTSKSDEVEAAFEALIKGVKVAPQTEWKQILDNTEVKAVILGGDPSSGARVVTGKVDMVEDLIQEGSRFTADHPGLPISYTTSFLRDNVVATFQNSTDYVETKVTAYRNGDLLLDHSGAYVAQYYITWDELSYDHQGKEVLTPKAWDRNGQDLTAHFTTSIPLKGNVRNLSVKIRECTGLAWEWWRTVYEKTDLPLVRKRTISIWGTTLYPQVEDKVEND

Structure (SMILES) | IC50 (pneumolysin; [3]) [µM] | [ ] (μM) t0 min. Prodrug [1] [µM] | [ ] (μM) t15 min. Prodrug [1] [µM] | [ ] (μM) t30 min. Prodrug [1] [µM] | [ ] (μM) t60 min. Prodrug [1] [µM] | [ ] (μM) t120 min. Prodrug [1] [µM] | IC50 (pneumolysin; [4]) [µM] | IC50 (pneumolysin; [5]) [µM] | [ ] (μM) t0 min. Prodrug (Human) [2] [µM] | [ ] (μM) t15 min. Prodrug (Human) [2] [µM] | [ ] (μM) t30 min. Prodrug (Human) [2] [µM] | [ ] (μM) t60 min. Prodrug (Human) [2] [µM] | [ ] (μM) t120 min. Prodrug (Human) [2] [µM]
CCOC(=O)c1c(OC(=O)N2CCN(C)CC2)c(OC(=O)N2CCN(C)CC2)c(C(=O)N(C)C)n1-c1ccc(OC)cc1 [UL1-064, 2-(dimethylcarbamoyl)-5-(ethoxycarbonyl)-1-(4-methoxyphenyl)-1H-pyrrole-3,4-diyl bis(4-methylpiperazine-1-carboxylate)] | > 60 | 10 | 3.10 | 7.00 | 5.00 | 2.20 | – | – | – | – | – | – | –
CCOC(=O)c1c(OC(=O)N2CCC(N3CCCCC3)CC2)c(OC(=O)N2CCC(N3CCCCC3)CC2)c(C(=O)N(C)C)n1-c1ccc(OC)cc1 [UL1-065, 2-(dimethylcarbamoyl)-5-(ethoxycarbonyl)-1-(4-methoxyphenyl)-1H-pyrrole-3,4-diyl bis([1,4′-bipiperidine]-1′-carboxylate)] | > 60 | 10 | 4.21 | 3.72 | 2.57 | 1.14 | – | – | – | – | – | – | –
CCOC(=O)c1c(O)c(OC(=O)N(C)C)c(C(=O)N(C)C)n1-c1ccc(OC)cc1 [UL1-066, ethyl 5-(dimethylcarbamoyl)-4-((dimethylcarbamoyl)oxy)-3-hydroxy-1-(4-methoxyphenyl)-1H-pyrrole-2-carboxylate] | < 10 | 10 | 9.90 | 10.00 | 9.78 | 9.50 | – | – | – | – | – | – | –
CCOC(=O)c1c(OC(=O)C(C)C)c(OC(=O)C(C)C)c(C(=O)N(C)C)n1-c1ccc(OC)cc1 [UL1-067, 2-(dimethylcarbamoyl)-5-(ethoxycarbonyl)-1-(4-methoxyphenyl)-1H-pyrrole-3,4-diyl bis(2-methylpropanoate)] | – | 10 | 0 | 0 | 0 | 0 | 20 to 60 | – | – | – | – | – | –
CCOC(=O)c1c(OC(=O)C(C)(C)C)c(OC(=O)C(C)(C)C)c(C(=O)N(C)C)n1-c1ccc(OC)cc1 [UL1-068, 2-(dimethylcarbamoyl)-5-(ethoxycarbonyl)-1-(4-methoxyphenyl)-1H-pyrrole-3,4-diyl bis(2,2-dimethylpropanoate)] | – | 10 | 3.02 | 1.00 | 0.136 | 0 | – | > 60 | – | – | – | – | –
CCOC(=O)c1c(O)c(OS(N)(=O)=O)c(C(=O)N(C)C)n1-c1ccc(OC)cc1 [UL1-069, ethyl 5-(dimethylcarbamoyl)-3-hydroxy-1-(4-methoxyphenyl)-4-(sulfamoyloxy)-1H-pyrrole-2-carboxylate] | – | 10 | 9.90 | 9.70 | 9.60 | 9.90 | < 10 | – | – | – | – | – | –
CCOC(=O)c1c(O)c(OP(=O)(O)O)c(C(=O)N(C)C)n1-c1ccc(OC)cc1 [UL1-070, ethyl 5-(dimethylcarbamoyl)-3-hydroxy-1-(4-methoxyphenyl)-4-(phosphonooxy)-1H-pyrrole-2-carboxylate] | – | 10 | 6.40 | 4.73 | 2.43 | 0.93 | 20 to 60 | – | 10 | 8.02 | 8.28 | 7.70 | 7.48
CCOC(=O)c1c(O)c(OC(=O)N2CCC(N3CCCCC3)CC2)c(C(=O)N(C)C)n1-c1ccc(OC)cc1 [UL1-071, 2-(dimethylcarbamoyl)-5-(ethoxycarbonyl)-4-hydroxy-1-(4-methoxyphenyl)-1H-pyrrol-3-yl [1,4′-bipiperidine]-1′-carboxylate] | 20 to 60 | 10 | 9.50 | 9.00 | 8.72 | 7.39 | – | – | – | – | – | – | –
CCOC(=O)c1c(OP(=O)(OCC)OCC)c(OP(=O)(OCC)OCC)c(C(=O)N(C)C)n1-c1ccc(OC)cc1 [UL1-092, ethyl 3,4-bis((diethoxyphosphoryl)oxy)-5-(dimethylcarbamoyl)-1-(4-methoxyphenyl)-1H-pyrrole-2-carboxylate] | > 60 | 10 | 5.12 | 4.67 | 4.59 | 3.70 | – | – | – | – | – | – | –
CCOC(=O)c1c(OP(=O)(OCC)OCC)c(O)c(C(=O)N(C)C)n1-c1ccc(OC)cc1 [UL1-094, ethyl 3-((diethoxyphosphoryl)oxy)-5-(dimethylcarbamoyl)-4-hydroxy-1-(4-methoxyphenyl)-1H-pyrrole-2-carboxylate] | 20 to 60 | 10 | 9.99 | 9.22 | 8.78 | 8.49 | – | – | – | – | – | – | –
CCOC(=O)c1c(OC(=O)C(C)C)c(OC(=O)C(C)C)c(C(=O)N(C)C)n1-c1ccc(OCCOCCOCCOC)cc1 [UL1-098, 2-(dimethylcarbamoyl)-5-(ethoxycarbonyl)-1-(4-(2-(2-(2-methoxyethoxy)ethoxy)ethoxy)phenyl)-1H-pyrrole-3,4-diyl bis(2-methylpropanoate)] | – | 10 | 0 | 0 | 0 | 0 | – | > 60 | 10 | 5.42 | 3.45 | 1.76 | 0.65
CCOC(=O)c1c(OC(=O)CCOCCOC)c(OC(=O)CCOCCOC)c(C(=O)N(C)C)n1-c1ccc(OC)cc1 [UL1-105, 2-(dimethylcarbamoyl)-5-(ethoxycarbonyl)-1-(4-methoxyphenyl)-1H-pyrrole-3,4-diyl bis(3-(2-methoxyethoxy)propanoate)] | – | 10 | 0 | 0 | 0 | 0 | < 10 | – | – | – | – | – | –
CCOC(=O)c1c(O)c(OCOP(=O)(O)O)c(C(=O)N(C)C)n1-c1ccc(OC)cc1 [UL1-109, ethyl 5-(dimethylcarbamoyl)-3-hydroxy-1-(4-methoxyphenyl)-4-((phosphonooxy)methoxy)-1H-pyrrole-2-carboxylate] | – | 10 | 6.87 | 4.84 | 2.45 | 0.73 | – | > 60 | 10 | 6.22 | 5.37 | 3.39 | 1.72
CCOC(=O)c1c(OC(=O)C(C)(C)COCCCOP(=O)(O)O)c(OC(=O)C(C)(C)COCCCOP(=O)(O)O)c(C(=O)N(C)C)n1-c1ccc(OC)cc1 [UL1-118, 2-(dimethylcarbamoyl)-5-(ethoxycarbonyl)-1-(4-methoxyphenyl)-1H-pyrrole-3,4-diyl bis(2,2-dimethyl-3-(3-(phosphonooxy)propoxy)propanoate)] | – | 10 | 6.04 | 4.00 | 1.68 | 0.23 | < 10 | – | – | – | – | – | –
